Assay results as given in US10759839B2, “Cell-penetrating peptide” (NEOREGEN BIOTECH, priority 2016, dated 2020).
Entries after “also recorded” stand apart in the source; their conditions may differ. Where no end group is shown, it is not given here.

How the values were obtained:
[1] = test system: NIH3T3 cell line; assay: Cell penetration efficiency of FITC-labelled p53C, Tat-Ara-19 and ICT-53 (FIG. 7); type: cell-based; details: 1 μM, 1 hour
Description: FIG. 7 is a graph showing results of comparing the cell penetration efficiencies of p53C, Tat-ara-19 and ICT-53 peptides.
A p53C peptide having 22 amino acid sequences and Tat-Ara-19 peptide, as well as the ICT-53 peptide, in which the p53C peptide is fused to the Tat-Ara-19 peptide, were synthesized, then fluorescein isothiocyanate (FITC, fluorescent material) was adhered to the C-terminus thereof so as to fluoresce. These peptides were used to examine the cell penetration efficiency for 1 hour at a concentration of 1 μM in a NIH3T3 cell line. […] In this experiment, the penetration efficiency in a situation including serum was also examined.

[2] = test system: NIH3T3 fibroblast; assay: Cell penetration efficiency of FITC-peptides, heparin and trypsin washing, FACS (FIG. 6); type: cell-based; details: 1 μM
Text: FIG. 6 is a graph showing results of comparing the cell penetration efficiencies of Ara-27, ara-20, R8-Ara-19 and Ara-8 cell-penetrating peptides in a NIH3T3 fibroblast.
(§1) In order to confirm the cell penetration efficiency of each cell-penetrating peptide, fluorescein isothiocyanate (FITC, fluorescent material), which fluoresces each peptide, was adhered to each peptide, then penetration efficiencies thereof were examined.
When measuring the cell penetration efficiency, in order to remove each cell-penetrating peptide which may be adhered to the cell membrane surface, a Heparin & Trypsin washing method used in the Kaplan group was applied thereto [Kaplan I M, Wadia J S, Dowdy S F (2005) Cationic TAT peptide transduction domain enters cells by macropinocytosis. J Controlled release 102: 247-253). In summary, in the experiments to be described below, each cell-penetrating peptide was put into a cell growth medium at a concentration of 1 μM, incubated for 30 minutes, and then the cells were washed 3 times with Heparin, followed by separating the cells with trypsin to perform a FACS analysis.
Next, the cell penetration efficiencies of Ara-27 and the cell-penetrating peptides including amino acid sequences of SEQ ID NO: 1 (Ara-20), SEQ ID NO: 3 (R8-Ara-19), and SEQ ID NO: 11 (Ara-8) of the examples in a NIH3T3 fibroblast were compared.

[3] = test system: mesenchymal stem cell (MSC); assay: Cell penetration of FITC-labelled peptide by concentration, FACS fluorescence intensity (FIG. 1); type: cell-based, human; details: 1 hour
Text: FIG. 1 is a graph showing that a cell membrane penetration efficiency of Ara-27 cell-penetrating peptide is increased in proportion to a concentration in mesenchymal stem cell (MSC) derived from a human body. In the graph, a Y axis represents a fluorescence intensity, which is an index indicating an amount of introduced peptides per unit cell.
as §1
When measuring the cell penetration efficiency, in order to remove each cell-penetrating peptide which may be adhered to the cell membrane surface, a Heparin & Trypsin washing method used in the Kaplan group was applied thereto [Kaplan I M, Wadia J S, Dowdy S F (2005) Cationic TAT peptide transduction domain enters cells by macropinocytosis. J Controlled release 102: 247-253). […]
In the mesenchymal stem cell (MSC), an amount of the cell-penetrating peptide (Ara-27) including an amino acid sequence of SEQ ID NO: 2 into the cell was determined for each concentration.

[4] = test system: human-derived MSCs; assay: Fluorescence microscopy of peptide entry into cells (FIG. 2); type: cell-based; details: 1 μM, 30 minutes, medium containing 10% serum, heparin washing, trypsin
Description: An experiment was conducted in a medium containing 10% serum, and after treatment for 30 minutes at a concentration of 1 μM, fluorescent peptides adhered to the cell surface were removed using a heparin washing method, and then the cell was separated therefrom by treatment with trypsin. FIG. 2 is photographs of cells taken by the fluorescence microscope after separation.

[5] = test system: Human mesenchymal stem cells (human MSCs); assay: Confocal microscopy of intracellular localisation with membrane marker FM-64 (FIG. 3); type: cell-based
Text: Further, in order to determine whether the Ara-27 cell-penetrating peptide is actually present in intracellular nuclei or cytoplasm, the Ara-27 peptide was fluorescently treated, and then analyzed using a confocal microscope. Human mesenchymal stem cells (human MSCs) were placed in a DMEM cell culture medium containing 10% FBS in a 6-well plate. […] Next, a membrane marker (FM-64) was used to examine whether the peptides are actually present inside the cell membrane. The cells were removed with trypsin to allow reagents to be inserted into the cell membrane, and the reagents were treated to perform the analysis. At this time, it can be confirmed that most of peptides were present in cytoplasmic parts inside the cell membranes, and some of the peptides were also present in the nucleus (FIG. 3).

[6] = test system: U2OS cancer cell line; assay: Anti-cancer effect of purified ICT-53 peptide (FIGS. 9 and 10); type: cell-based; details: for each concentration

## Tat-Ara-19: cell-penetrating peptide including an amino acid sequence of SEQ ID NO: 4 (RKKRRQRRCFRCRQAGHWISDCRLKSK; Tat-Ara-19)
[1]
  cell penetration efficiency (in words): high efficiency

## p53C: p53C peptide (SEQ ID NO: 5), peptide of a C-terminal region of a p53 protein, 22 amino acids (GSRAHSSHLKSKKGQSTSRHKK; p53C) [reference compound]
[1]
  cell penetration efficiency (in words): did not penetrate into the cell

## Tat-PTD: Tat-PTD (SEQ ID NO: 12), a well-known cell-penetrating peptide, used as control group (RKKRRQRR; Tat-PTD) [reference compound]
[2]; NIH3T3 fibroblast, 30 minutes
  cell penetration efficiency (in words): very low level
[3]; even at 5 μM
  amount of the peptide introduced per unit cell (fluorescence intensity): remarkably low
[4]
  peptides that entered the cells, seen by fluorescence microscope: very rarely found

## Ara-27: cell-penetrating peptide including an amino acid sequence of SEQ ID NO: 2, Arabidopsis thaliana-derived (RNQRKTVRCFRCRQAGHWISDCRLKSK; Ara-27)
[5]; 2 μM, DMEM containing 10% FBS
  location of the peptide in the cell: most of the Ara-27 peptides were present in the cytoplasm
[5]; 5 μM, 18 hours after penetration
  persistence of the peptide in the cell: stably exist therein
[5]; 5 μM, 18 hours after penetration, membrane marker
  location of the peptide in the cell: not only in the cytoplasm but also in the nucleus
[2]; within 30 minutes, environment including serum
  efficiency of penetrance into the cell: ≥ 90%
[3]; for each concentration
  amount of the peptide introduced per unit cell (fluorescence intensity): increased in proportion to the concentration
[4]
  peptides that entered the cells, seen by fluorescence microscope: found across all the cells; also recorded: high fluorescence intensity

## RKKRRQRRCFRCRQAGHWISDCRLKSKGSRAHSSHLKSKKGQSTSRHKK (cysteines drawn unpaired) [ICT-53]
[6]
  anti-cancer effect, dependence on concentration: in proportion to the concentration
[1]
  cell penetration efficiency (in words): high efficiency
